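Interpolation was linear, between the two tested concentrations surrounding the appropriate level; five concentrations were tested over 48 hours in 96-well plates. GI50: concentration for 50% inhibition of growth.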 Calls of active or inactive are those of the source. No stated cut-off is given here; in the data, active = GI50 up to about 1.1 µM and inactive = higher.
What was measured:
Assay in all cases: growth of human tumour cells (NCI), 48 h
[1] = tested on: RXF 393
[2] = tested on: NCI-H226
[3] = tested on: IGROV-1
[4] = tested on: UACC-62
[5] = tested on: SW-620
[6] = tested on: M19-MEL
[7] = tested on: SNB-78
[8] = tested on: NCI-H23
[9] = tested on: SK-MEL-2
[10] = tested on: SK-MEL-28
[11] = tested on: UO-31
[12] = tested on: COLO 205
[13] = tested on: SK-MEL-5
[14] = tested on: KM12
[15] = tested on: EKVX
[16] = tested on: MOLT-4
[17] = tested on: NCI-H522
[18] = tested on: LOX IMVI
[19] = tested on: DLD-1
[20] = tested on: OVCAR-8
[21] = tested on: SNB-19
[22] = tested on: HCT-116
[23] = tested on: K562
[24] = tested on: CCRF-CEM
[25] = tested on: M14
[26] = tested on: SNB-75
[27] = tested on: NCI-H460
[28] = tested on: SF-539
[29] = tested on: XF498
[30] = tested on: OVCAR-5
[31] = tested on: DMS-273
[32] = tested on: UACC-257
[33] = tested on: TK-10
[34] = tested on: SF-268
[35] = tested on: U-251
[36] = tested on: A498
[37] = tested on: SF-295
[38] = tested on: RPMI-8226
[39] = tested on: HL-60
[40] = tested on: A549
[41] = tested on: HOP-92
[42] = tested on: HOP-18
[43] = tested on: OVCAR-4
[44] = tested on: RXF 631
[45] = tested on: ACHN
[46] = tested on: KM-20L2
[47] = tested on: Malme-3M
[48] = tested on: HOP-62
[49] = tested on: CAKI-1
[50] = tested on: HT-29
[51] = tested on: SN12C
[52] = tested on: SK-OV-3
[53] = tested on: SR
[54] = tested on: OVCAR-3
[55] = tested on: 786-0
[56] = tested on: LXFL 529
[57] = tested on: HCT-15
[58] = tested on: HCC 2998

In the case of `O=[N+]([O-])c1ccc(C2N3CCCCC3[C@H]3CCCCN23)cc1` (stereo partly drawn), the GI50 [1] is reported as > 100 µM (inactive), the GI50 [2] is reported as > 100 µM (inactive) and the GI50 [3] is reported as > 100 µM (inactive). For the same molecule, the GI50 [4] was > 100 µM (inactive), the GI50 [5] was > 100 µM (inactive) and the GI50 [6] was > 100 µM (inactive). The GI50 [7] was > 100 µM (inactive), the GI50 [8] was > 100 µM (inactive) and the GI50 [9] was > 100 µM (inactive). For the same molecule, the GI50 [10] was > 100 µM (inactive), the GI50 [11] was > 100 µM (inactive) and the GI50 [12] was > 100 µM (inactive). For the same molecule, the GI50 [13] was > 100 µM (inactive), the GI50 [14] was > 100 µM (inactive) and the GI50 [15] was > 100 µM (inactive). For the same molecule, the GI50 [16] was > 100 µM (inactive), the GI50 [17] was > 100 µM (inactive) and the GI50 [18] was > 100 µM (inactive). The GI50 [19] was > 100 µM (inactive), the GI50 [20] was > 100 µM (inactive) and the GI50 [21] was > 100 µM (inactive). The GI50 [22] was > 100 µM (inactive), the GI50 [23] was > 100 µM (inactive) and the GI50 [24] was > 100 µM (inactive). The GI50 [25] was > 100 µM (inactive), the GI50 [26] was > 100 µM (inactive) and the GI50 [27] was > 100 µM (inactive). The GI50 [28] was > 100 µM (inactive), the GI50 [29] was > 100 µM (inactive) and the GI50 [30] was > 100 µM (inactive). The GI50 [31] was > 100 µM (inactive), the GI50 [32] was > 100 µM (inactive) and the GI50 [33] was > 100 µM (inactive). For the same molecule, the GI50 [34] was > 100 µM (inactive), the GI50 [35] was > 100 µM (inactive) and the GI50 [36] was > 100 µM (inactive). The GI50 [37] was > 100 µM (inactive), the GI50 [38] was > 100 µM (inactive) and the GI50 [39] was > 100 µM (inactive). For the same molecule, the GI50 [40] was > 100 µM (inactive), the GI50 [41] was > 100 µM (inactive) and the GI50 [42] was > 100 µM (inactive). The GI50 [43] was > 100 µM (inactive), the GI50 [44] was > 100 µM (inactive) and the GI50 [45] was > 100 µM (inactive). For the same molecule, the GI50 [46] was > 100 µM (inactive), the GI50 [47] was > 100 µM (inactive) and the GI50 [48] was > 100 µM (inactive). The GI50 [49] was > 100 µM (inactive), the GI50 [50] was > 100 µM (inactive) and the GI50 [51] was > 100 µM (inactive). For the same molecule, the GI50 [52] was > 100 µM (inactive), the GI50 [53] was > 100 µM (inactive) and the GI50 [54] was > 100 µM (inactive). The GI50 [55] was > 100 µM (inactive), the GI50 [56] was > 100 µM (inactive) and the GI50 [57] was greater than 100 µM.
`CN(C)C(=S)/N=c1\sn(C)/c(=N\C(=S)N(C)C)n1C` was tested, and the GI50 [1] was > 100 µM (inactive), the GI50 [2] was > 100 µM (inactive) and the GI50 [3] was > 100 µM (inactive). The GI50 [4] was 32.2 µM (inactive), the GI50 [5] was > 100 µM (inactive) and the GI50 [6] was 25.8 µM (inactive). The GI50 [7] was > 100 µM (inactive), the GI50 [8] was 30.8 µM (inactive) and the GI50 [10] was > 100 µM (inactive). For the same molecule, the GI50 [11] was > 100 µM (inactive), the GI50 [12] was > 100 µM (inactive) and the GI50 [13] was 29.1 µM (inactive). The GI50 [14] was 86.1 µM (inactive), the GI50 [15] was > 100 µM (inactive) and the GI50 [16] was > 100 µM (inactive). For the same molecule, the GI50 [17] was 29.4 µM (inactive), the GI50 [18] was 45.1 µM (inactive) and the GI50 [19] was > 100 µM (inactive). For the same molecule, the GI50 [20] was > 100 µM (inactive), the GI50 [21] was > 100 µM (inactive) and the GI50 [22] was > 100 µM (inactive). The GI50 [23] was 34.1 µM (inactive), the GI50 [25] was > 100 µM (inactive) and the GI50 [26] was > 100 µM (inactive). The GI50 [27] was 50.6 µM (inactive), the GI50 [28] was > 100 µM (inactive) and the GI50 [29] was > 100 µM (inactive). The GI50 [30] was > 100 µM (inactive), the GI50 [31] was 36.7 µM (inactive) and the GI50 [32] was > 100 µM (inactive). The GI50 [33] was > 100 µM (inactive), the GI50 [34] was > 100 µM (inactive) and the GI50 [35] was 85.3 µM (inactive). The GI50 [36] was 65.6 µM (inactive), the GI50 [37] was > 100 µM (inactive) and the GI50 [38] was > 100 µM (inactive). For the same molecule, the GI50 [39] was 25.1 µM (inactive), the GI50 [40] was 82.8 µM (inactive) and the GI50 [41] was > 100 µM (inactive). For the same molecule, the GI50 [42] was > 100 µM (inactive), the GI50 [43] was > 100 µM (inactive) and the GI50 [58] was > 100 µM (inactive). The GI50 [44] was > 100 µM (inactive), the GI50 [45] was > 100 µM (inactive) and the GI50 [46] was > 100 µM (inactive). The GI50 [47] was 19.5 µM (inactive), the GI50 [48] was > 100 µM (inactive) and the GI50 [49] was > 100 µM (inactive). The GI50 [50] was 25.9 µM (inactive), the GI50 [51] was > 100 µM (inactive) and the GI50 [52] was > 100 µM (inactive). The GI50 [53] was > 100 µM (inactive), the GI50 [54] was > 100 µM (inactive) and the GI50 [55] was > 100 µM (inactive). For the same molecule, the GI50 [56] was > 100 µM (inactive) and the GI50 [57] was greater than 100 µM.

From ChEMBL document CHEMBL1201862, “PubChem BioAssay data set” (2004)
